Data as given in ChEMBL document CHEMBL2203000, “Discovery of AC710, a Globally Selective Inhibitor of Platelet-Derived Growth Factor Receptor-Family Kinases” (ACS Med Chem Lett, 2012).
pIC50, pKd: −log10 of the molar value. Each block holds one compound with its values, some of them ahead of it. The source made the active and inactive calls. No cut-off for these calls is given here.

Assays:
NFS-60 = test: Antitumor activity against mouse M-NFS-60 cells xenografted in CD-1 nude mouse assessed as inhibition of tumor growth measured after 4 days of tumor implantation; type: functional, cell-based
Mus musculus [1] = test: Antiarthritic activity in collagen-induced arthritis mouse assessed as decrease in joint swelling and inflammation at 10 to 30 mg/kg, po for 15 days; type: functional, organism-based
Mus musculus [2] = test: Antiarthritic activity in po dosed collagen-induced arthritis mouse assessed as decrease in paw clinical scores administered for 15 days; type: functional, organism-based
MV4-11 [3] = test: Antitumor activity against human MV4-11 cells xenografted in SCID mouse assessed as complete reduction in tumor volume at 3 to 30 mg/kg for 2 weeks; type: functional, organism-based
MV4-11 [4] = test: Antitumor activity against human MV4-11 cells xenografted in SCID mouse assessed as reduction in tumor volume at 0.3 mg/kg for 2 weeks; type: functional, organism-based; set-up: dose 0.3 mg/kg
Rattus norvegicus [5] = test: Toxicity in rat assessed as mortality at 800 mg/kg administered for 7 days; type: organism-based; set-up: dose 800 mg/kg; conditions: in vivo, 168 h
[6] = Antitumor activity against mouse M-NFS-60 cells xenografted in CD-1 nude mouse assessed as inhibition of tumor growth at 30 mg/kg, po measured after 4 of tumor implantation; type: functional; conditions: read-out: TGI
[7] = Antitumor activity against mouse M-NFS-60 cells xenografted in CD-1 nude mouse assessed as inhibition of tumor growth at 10 mg/kg, po measured after 4 of tumor implantation; type: functional; conditions: read-out: TGI
[8] = Antitumor activity against mouse M-NFS-60 cells xenografted in CD-1 nude mouse assessed as inhibition of tumor growth at 3 mg/kg, po measured after 4 of tumor implantation; type: functional; conditions: read-out: TGI
Mus musculus [9] = test: Toxicity in collagen-induced arthritis mouse assessed as body weight and body condition at 3 to 30 mg/kg for 15 days; type: organism-based; set-up: dose 3-30 mg/kg; conditions: in vivo, 360 h
Mus musculus [10] = test: Toxicity in human MV4-11 cells xenografted in SCID mouse assessed as change in body weight at 0.3 to 30 mg/kg foe 2 weeks; type: organism-based; set-up: dose 0.3-30 mg/kg; conditions: in vivo, 336 h
Rattus norvegicus [11] = test: Toxicity in rat at 200 mg/kg administered for 7 days; type: organism-based; set-up: dose 200 mg/kg; conditions: in vivo, 168 h
[12] = AUC in po dosed CD-1 mouse by LC-MS/MS analysis; type: ADME, organism-based; conditions: plasma
Rattus norvegicus [13] = test: Toxicity in rat assessed as diarrhea at 800 mg/kg administered for 7 days; type: organism-based; set-up: dose 800 mg/kg; conditions: in vivo, 168 h
Cytochrome P450 2D6 [14] = molecular target: T1, Cytochrome P450 2D6 (Homo sapiens, UniProt P10635); test: Induction of CYP2D6 at 3 to 30 uM; type: ADME
T1 sequence (P10635 whole entry): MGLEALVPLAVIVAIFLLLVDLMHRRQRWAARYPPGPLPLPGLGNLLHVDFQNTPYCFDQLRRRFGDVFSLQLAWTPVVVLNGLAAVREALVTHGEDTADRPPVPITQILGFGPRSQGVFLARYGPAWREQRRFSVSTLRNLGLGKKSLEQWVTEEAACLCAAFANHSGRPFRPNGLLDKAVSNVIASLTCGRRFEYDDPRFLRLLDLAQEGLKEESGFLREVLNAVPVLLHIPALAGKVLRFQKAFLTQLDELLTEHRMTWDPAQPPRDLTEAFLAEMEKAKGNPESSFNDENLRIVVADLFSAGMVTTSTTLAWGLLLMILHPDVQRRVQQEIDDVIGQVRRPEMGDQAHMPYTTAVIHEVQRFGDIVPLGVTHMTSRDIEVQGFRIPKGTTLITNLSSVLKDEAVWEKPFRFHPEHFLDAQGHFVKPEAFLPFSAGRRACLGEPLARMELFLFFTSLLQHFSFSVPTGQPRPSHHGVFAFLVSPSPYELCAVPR

Cytochrome P450 3A4 [15] = molecular target: T2, Cytochrome P450 3A4 (Homo sapiens, UniProt P08684); test: Induction of CYP3A4 at 3 to 30 uM; type: ADME
T2 sequence (P08684 whole entry): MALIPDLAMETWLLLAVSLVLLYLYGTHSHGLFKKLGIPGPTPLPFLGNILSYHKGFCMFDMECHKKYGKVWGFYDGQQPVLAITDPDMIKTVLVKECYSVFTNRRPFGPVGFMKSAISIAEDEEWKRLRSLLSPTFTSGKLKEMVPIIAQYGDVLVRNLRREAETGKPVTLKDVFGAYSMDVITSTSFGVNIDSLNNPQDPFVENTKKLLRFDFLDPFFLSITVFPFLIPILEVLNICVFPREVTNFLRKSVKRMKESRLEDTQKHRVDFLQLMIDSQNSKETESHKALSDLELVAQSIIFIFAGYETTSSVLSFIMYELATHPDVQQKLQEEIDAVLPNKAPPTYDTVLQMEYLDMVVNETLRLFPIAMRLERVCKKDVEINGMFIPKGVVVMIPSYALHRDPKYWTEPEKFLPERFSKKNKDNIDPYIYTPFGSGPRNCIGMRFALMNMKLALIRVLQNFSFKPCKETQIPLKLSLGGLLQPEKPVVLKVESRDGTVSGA

Cytochrome P450 1A2 [16] = molecular target: T3, Cytochrome P450 1A2 (Homo sapiens, UniProt P05177); test: Induction of CYP1A2 at 3 to 30 uM; type: ADME
T3 sequence (P05177 whole entry): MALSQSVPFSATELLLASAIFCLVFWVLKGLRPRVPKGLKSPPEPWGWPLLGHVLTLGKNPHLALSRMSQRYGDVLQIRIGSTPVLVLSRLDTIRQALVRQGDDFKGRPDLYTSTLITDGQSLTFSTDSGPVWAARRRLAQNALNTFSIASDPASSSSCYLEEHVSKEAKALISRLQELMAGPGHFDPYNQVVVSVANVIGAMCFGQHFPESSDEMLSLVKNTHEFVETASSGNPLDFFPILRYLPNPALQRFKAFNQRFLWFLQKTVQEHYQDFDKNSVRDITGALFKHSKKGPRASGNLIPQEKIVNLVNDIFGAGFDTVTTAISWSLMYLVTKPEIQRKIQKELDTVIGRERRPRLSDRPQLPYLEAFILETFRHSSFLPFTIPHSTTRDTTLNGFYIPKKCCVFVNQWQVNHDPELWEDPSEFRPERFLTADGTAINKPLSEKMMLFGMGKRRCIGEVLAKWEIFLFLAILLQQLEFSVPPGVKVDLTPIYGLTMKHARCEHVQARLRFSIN

Cytochrome P450 2C19 = Cytochrome P450 2C19 (Homo sapiens, UniProt P33261); test: Inhibition of CYP2C19; type: ADME
Sequence of Cytochrome P450 2C19 (P33261 whole entry): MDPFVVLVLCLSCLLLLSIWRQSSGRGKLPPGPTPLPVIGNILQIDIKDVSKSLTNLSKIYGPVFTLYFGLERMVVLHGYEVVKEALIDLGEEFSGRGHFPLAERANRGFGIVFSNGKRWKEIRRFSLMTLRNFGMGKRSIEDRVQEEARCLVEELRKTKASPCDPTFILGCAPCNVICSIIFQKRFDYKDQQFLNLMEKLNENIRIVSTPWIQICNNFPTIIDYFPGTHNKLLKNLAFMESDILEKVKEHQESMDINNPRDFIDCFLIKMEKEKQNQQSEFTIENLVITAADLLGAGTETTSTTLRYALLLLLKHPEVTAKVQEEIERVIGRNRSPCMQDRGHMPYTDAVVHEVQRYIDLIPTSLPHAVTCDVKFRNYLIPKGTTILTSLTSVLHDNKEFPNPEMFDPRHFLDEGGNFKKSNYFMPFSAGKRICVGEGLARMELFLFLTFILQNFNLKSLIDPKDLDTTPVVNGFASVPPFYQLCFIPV

Cytochrome P450 2D6 [17] = molecular target: T1, Cytochrome P450 2D6; test: Inhibition of CYP2D6; type: ADME
Cytochrome P450 1A2 [18] = molecular target: T3, Cytochrome P450 1A2; test: Inhibition of CYP1A2; type: ADME
Cytochrome P450 2C9 = Cytochrome P450 2C9 (Homo sapiens, UniProt P11712); test: Inhibition of CYP2C9; type: ADME
Sequence of Cytochrome P450 2C9 (P11712 whole entry): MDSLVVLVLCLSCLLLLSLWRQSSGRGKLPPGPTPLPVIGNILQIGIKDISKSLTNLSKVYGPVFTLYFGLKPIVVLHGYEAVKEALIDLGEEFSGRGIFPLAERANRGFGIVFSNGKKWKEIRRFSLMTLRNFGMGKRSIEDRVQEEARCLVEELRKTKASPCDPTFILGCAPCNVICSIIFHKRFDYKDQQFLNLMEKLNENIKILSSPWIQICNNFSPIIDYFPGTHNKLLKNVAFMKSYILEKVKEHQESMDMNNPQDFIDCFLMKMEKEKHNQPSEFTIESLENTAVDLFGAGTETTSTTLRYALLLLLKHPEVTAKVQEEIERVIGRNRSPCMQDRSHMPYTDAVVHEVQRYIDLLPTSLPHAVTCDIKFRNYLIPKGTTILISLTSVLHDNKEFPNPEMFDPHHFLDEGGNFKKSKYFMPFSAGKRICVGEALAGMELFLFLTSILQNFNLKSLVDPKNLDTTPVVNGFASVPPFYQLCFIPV

[19] = molecular target: T4, Platelet-derived growth factor receptor beta (Homo sapiens, UniProt P09619); test: Binding affinity to PDGFRbeta expressed in HEK-293 cells; type: cell-based, HEK293
[20] = molecular target: T4, Platelet-derived growth factor receptor beta; test: Inhibition of PDGFRbeta phosphorylation in human MG63 cells; type: cell-based, MG-63
Target sequence in this assay (P09619 whole entry, looked up): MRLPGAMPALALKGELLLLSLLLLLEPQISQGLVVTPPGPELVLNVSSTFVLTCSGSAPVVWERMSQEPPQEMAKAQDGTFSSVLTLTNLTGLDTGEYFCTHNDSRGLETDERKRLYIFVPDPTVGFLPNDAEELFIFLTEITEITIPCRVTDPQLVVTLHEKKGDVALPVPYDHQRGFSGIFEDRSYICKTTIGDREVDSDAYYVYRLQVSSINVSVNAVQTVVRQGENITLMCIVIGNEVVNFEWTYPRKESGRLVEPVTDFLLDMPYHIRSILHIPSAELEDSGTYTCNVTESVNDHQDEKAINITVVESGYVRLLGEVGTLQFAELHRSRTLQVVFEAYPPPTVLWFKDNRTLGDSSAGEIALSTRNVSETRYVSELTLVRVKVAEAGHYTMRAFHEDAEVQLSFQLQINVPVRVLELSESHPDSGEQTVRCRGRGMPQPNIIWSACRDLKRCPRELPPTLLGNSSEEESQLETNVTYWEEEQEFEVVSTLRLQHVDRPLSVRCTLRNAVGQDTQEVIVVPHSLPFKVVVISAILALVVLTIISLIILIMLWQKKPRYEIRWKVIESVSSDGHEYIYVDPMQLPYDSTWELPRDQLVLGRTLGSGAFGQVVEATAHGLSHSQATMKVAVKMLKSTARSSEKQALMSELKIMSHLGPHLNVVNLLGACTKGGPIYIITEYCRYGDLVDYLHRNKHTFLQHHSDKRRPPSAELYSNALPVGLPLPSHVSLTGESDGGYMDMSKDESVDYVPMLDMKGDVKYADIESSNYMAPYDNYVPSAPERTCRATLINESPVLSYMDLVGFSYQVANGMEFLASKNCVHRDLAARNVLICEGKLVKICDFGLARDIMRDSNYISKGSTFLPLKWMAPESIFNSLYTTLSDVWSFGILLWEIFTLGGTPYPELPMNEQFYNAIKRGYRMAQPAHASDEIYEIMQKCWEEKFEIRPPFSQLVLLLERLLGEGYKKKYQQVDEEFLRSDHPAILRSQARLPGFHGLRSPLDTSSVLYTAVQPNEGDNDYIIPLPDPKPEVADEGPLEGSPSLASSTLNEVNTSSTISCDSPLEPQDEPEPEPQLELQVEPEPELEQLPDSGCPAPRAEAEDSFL

[21] = molecular target: Platelet-derived growth factor receptor alpha (Homo sapiens, UniProt P16234); test: Binding affinity to PDGFRalpha expressed in HEK-293 cells; type: cell-based, HEK293
[22] = molecular target: T5, Mast/stem cell growth factor receptor Kit (Homo sapiens, UniProt P10721); test: Binding affinity to KIT expressed in HEK-293 cells; type: cell-based, HEK293
T5 sequence (P10721 whole entry): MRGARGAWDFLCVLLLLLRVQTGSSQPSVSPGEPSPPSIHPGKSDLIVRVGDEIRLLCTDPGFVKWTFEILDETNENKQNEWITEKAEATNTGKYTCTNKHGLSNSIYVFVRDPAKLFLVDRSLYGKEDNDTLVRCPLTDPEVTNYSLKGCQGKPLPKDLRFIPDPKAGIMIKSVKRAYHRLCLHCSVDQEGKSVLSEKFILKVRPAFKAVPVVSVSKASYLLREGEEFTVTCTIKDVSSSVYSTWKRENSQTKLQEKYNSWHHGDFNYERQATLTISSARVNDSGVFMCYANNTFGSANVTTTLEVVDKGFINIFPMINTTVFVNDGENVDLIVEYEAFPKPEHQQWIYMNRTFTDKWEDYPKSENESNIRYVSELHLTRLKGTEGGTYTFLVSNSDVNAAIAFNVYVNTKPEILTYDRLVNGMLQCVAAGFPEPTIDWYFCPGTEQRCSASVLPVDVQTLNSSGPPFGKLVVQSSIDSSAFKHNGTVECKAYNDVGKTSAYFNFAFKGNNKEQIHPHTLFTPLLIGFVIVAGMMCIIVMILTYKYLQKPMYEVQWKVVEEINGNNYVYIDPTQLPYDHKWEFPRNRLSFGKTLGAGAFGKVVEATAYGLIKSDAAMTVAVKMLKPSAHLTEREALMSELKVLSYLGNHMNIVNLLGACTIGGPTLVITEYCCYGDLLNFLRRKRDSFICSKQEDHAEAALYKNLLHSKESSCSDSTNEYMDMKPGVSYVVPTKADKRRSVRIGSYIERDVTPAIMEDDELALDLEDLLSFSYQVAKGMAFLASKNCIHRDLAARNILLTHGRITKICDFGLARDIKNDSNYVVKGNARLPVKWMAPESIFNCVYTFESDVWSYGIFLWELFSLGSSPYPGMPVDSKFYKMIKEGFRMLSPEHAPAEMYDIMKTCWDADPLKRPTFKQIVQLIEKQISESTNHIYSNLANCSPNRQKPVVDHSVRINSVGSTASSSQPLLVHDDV

[23] = molecular target: T5, Mast/stem cell growth factor receptor Kit; test: Inhibition of KIT phosphorylation in human H526 cells; type: cell-based
[24] = molecular target: T6, Receptor-type tyrosine-protein kinase FLT3 (Homo sapiens, UniProt P36888); test: Inhibition of FLT3 phosphorylation in human MV4-11 cells; type: cell-based
T6 sequence (P36888 whole entry): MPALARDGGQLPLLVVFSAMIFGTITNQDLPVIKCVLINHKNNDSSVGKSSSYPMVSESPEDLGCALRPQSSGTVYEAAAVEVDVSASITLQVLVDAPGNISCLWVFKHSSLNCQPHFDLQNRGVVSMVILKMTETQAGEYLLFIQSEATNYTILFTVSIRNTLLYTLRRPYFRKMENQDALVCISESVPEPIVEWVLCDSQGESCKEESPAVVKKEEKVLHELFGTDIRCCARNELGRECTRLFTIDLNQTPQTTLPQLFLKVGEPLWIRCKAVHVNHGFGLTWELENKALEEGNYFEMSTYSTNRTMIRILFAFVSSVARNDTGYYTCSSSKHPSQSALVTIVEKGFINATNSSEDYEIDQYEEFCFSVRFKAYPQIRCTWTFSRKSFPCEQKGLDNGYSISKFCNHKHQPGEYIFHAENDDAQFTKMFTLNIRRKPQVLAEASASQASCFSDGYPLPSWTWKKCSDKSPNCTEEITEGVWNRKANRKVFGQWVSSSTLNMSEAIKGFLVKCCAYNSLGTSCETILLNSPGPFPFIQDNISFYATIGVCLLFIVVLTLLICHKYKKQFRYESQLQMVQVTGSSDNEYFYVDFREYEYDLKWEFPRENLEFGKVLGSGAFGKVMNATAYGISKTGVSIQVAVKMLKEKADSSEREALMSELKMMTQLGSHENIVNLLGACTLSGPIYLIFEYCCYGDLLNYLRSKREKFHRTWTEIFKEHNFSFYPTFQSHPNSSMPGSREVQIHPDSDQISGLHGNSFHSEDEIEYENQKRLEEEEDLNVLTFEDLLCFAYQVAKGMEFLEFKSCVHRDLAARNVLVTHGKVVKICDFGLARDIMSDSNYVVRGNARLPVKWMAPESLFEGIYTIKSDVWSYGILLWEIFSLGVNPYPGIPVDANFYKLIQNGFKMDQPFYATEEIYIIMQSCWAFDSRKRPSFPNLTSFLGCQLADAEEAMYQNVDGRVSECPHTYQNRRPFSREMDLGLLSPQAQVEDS

[25] = molecular target: T7, Macrophage colony-stimulating factor 1 receptor (Homo sapiens, UniProt P07333); test: Inhibition of M-CSF-induced […] -fussed CSF1R phosphorylation expressed in HEK293 cells after 2 hrs by sandwich ELISA; type: cell-based
T7 sequence (P07333 whole entry): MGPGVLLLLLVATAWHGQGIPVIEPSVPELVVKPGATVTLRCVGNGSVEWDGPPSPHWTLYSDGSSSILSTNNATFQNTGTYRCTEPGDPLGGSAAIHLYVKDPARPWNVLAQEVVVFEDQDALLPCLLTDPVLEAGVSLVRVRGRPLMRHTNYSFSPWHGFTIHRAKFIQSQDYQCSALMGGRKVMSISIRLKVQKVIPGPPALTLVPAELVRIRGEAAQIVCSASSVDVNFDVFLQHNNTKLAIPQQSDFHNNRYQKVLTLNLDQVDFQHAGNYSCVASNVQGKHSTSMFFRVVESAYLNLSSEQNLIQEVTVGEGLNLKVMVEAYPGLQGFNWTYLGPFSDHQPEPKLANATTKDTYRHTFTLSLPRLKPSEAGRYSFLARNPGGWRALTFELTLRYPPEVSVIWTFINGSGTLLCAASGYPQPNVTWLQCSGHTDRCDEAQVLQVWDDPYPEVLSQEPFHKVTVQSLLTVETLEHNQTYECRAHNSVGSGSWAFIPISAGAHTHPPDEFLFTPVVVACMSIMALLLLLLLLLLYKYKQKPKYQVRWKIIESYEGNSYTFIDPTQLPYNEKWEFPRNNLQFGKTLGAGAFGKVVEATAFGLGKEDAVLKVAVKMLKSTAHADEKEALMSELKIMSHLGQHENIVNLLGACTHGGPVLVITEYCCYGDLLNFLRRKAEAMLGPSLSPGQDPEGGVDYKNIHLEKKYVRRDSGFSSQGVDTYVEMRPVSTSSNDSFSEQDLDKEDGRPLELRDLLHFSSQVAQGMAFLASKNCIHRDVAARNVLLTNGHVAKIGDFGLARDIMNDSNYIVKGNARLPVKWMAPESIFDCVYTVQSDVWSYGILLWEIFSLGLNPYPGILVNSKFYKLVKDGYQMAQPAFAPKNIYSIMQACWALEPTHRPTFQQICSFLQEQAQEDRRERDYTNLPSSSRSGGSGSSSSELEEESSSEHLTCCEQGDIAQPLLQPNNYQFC

[26] = Oral bioavailability in Sprague-Dawley rat plasma at 10 mg/kg by LC-MS/MS analysis; type: ADME, organism-based; conditions: Sprague-Dawley, plasma
[27] = AUC in Sprague-Dawley rat plasma at 10 mg/kg, po by LC-MS/MS analysis; type: ADME, organism-based; set-up: dose 10 mg/kg, route oral; conditions: Sprague-Dawley, plasma
[28] = Clearance in Sprague-Dawley rat plasma at 1 mg/kg, iv and 10 mg/kg, po by LC-MS/MS analysis; type: ADME, organism-based
[29] = molecular target: T7, Macrophage colony-stimulating factor 1 receptor; test: Binding affinity to CSF1R expressed in HEK-293 cells after 1 hr; type: cell-based, HEK293
[30] = molecular target: T6, Receptor-type tyrosine-protein kinase FLT3; test: Binding affinity to FLT3 expressed in HEK-293 cells after 1 hr; type: cell-based, HEK293
[31] = Aqueous solubility of the compound at pH 2 to 7.4; type: physicochemical; conditions: buffer
[32] = Aqueous solubility of the compound in water; type: physicochemical
Rattus norvegicus [33] = test: Toxicity in rat assessed as effect on body weight at 800 mg/kg administered for 7 days; type: organism-based; set-up: dose 800 mg/kg; conditions: in vivo, 168 h
[34] = Antitumor activity against mouse M-NFS-60 cells xenografted in CD-1 nude mouse assessed as inhibition of tumor growth at 100 mg/kg, po measured after 4 of tumor implantation; type: functional; conditions: read-out: TGI
Cytochrome P450 3A4 [35] = molecular target: T2, Cytochrome P450 3A4; test: Inhibition of CYP3A4; type: ADME

SMILES: CCN1C(C)(C)CC(Oc2ccc(C(=O)Nc3ccc(NC(=O)Nc4cc(C(C)(C)C)on4)cc3)nc2)CC1(C)C [listing 1 of 2 here]
inhibition (NFS-60): Dose-dependent effect | inhibition (Mus musculus [1]): Active | inhibition (Mus musculus [2]): Active | Activity (MV4-11 [3]): Active | Activity (MV4-11 [4]): Active

SMILES: CCN1C(C)(C)CC(Oc2ccc(C(=O)Nc3ccc(NC(=O)Nc4cc(C(C)(C)C)on4)cc3)nc2)CC1(C)C [listing 2 of 2 here]
Activity (Rattus norvegicus [5]): Non-toxic | inhibition in vivo at 30 mg/kg [6]: 79% | inhibition in vivo at 10 mg/kg [7]: 54% | inhibition in vivo at 3 mg/kg [8]: 29% | Activity (Mus musculus [9]): Non-toxic | Activity (Mus musculus [10]): Non-toxic | Activity (Rattus norvegicus [11]): Non-toxic | AUC [12]: 56.4 µM·h | Activity (Rattus norvegicus [13]): Toxic | Activity (Cytochrome P450 2D6 [14]): Not Active | Activity (Cytochrome P450 3A4 [15]): Not Active | Activity (Cytochrome P450 1A2 [16]): Not Active | pIC50 (Cytochrome P450 2C19): < 4.40 | pIC50 (Cytochrome P450 2D6 [17]): < 4.40 | pIC50 (Cytochrome P450 1A2 [18]): < 4.40 | pIC50 (Cytochrome P450 2C9): < 4.40 | pKd [19]: 9.00 | pIC50 [20]: 8.11 | pKd [21]: 8.89 | pKd [22]: 9.00 | pIC50 [23]: 8.92 | pIC50 [24]: 8.70 | pIC50 [25]: 7.98 | bioavailability [26]: 44% | AUC [27]: 10 µM·h | clearance [28]: 14 mL/min/kg | pKd [29]: 8.80 | pKd [30]: 9.30

solubility [31]: < 5 µg/mL | bioavailability [26]: 9% | AUC [27]: 0.8 µM·h | clearance [28]: 47 mL/min/kg
SMILES: CC(C)(C)c1cc(NC(=O)Nc2ccc(NC(=O)c3cc4ccccc4cn3)cc2)no1

bioavailability [26]: 12% | AUC [27]: 1.4 µM·h | clearance [28]: 24 mL/min/kg
SMILES: CCN1CCC(Cc2ccc(C(=O)Nc3ccc(NC(=O)Nc4cc(C(C)(C)C)on4)cc3)nc2)CC1

SMILES: CCN1CCC(Oc2ccc(C(=O)Nc3ccc(NC(=O)Nc4cc(C(C)(C)C)on4)cc3)nc2)CC1
inhibition (NFS-60): Dose-dependent effect

bioavailability [26]: 4% | AUC [27]: 0.5 µM·h | clearance [28]: 37.9 mL/min/kg
SMILES: Cc1ccnc(C(=O)Nc2ccc(NC(=O)Nc3cc(C(C)(C)C)on3)cc2)c1

SMILES: CN1C(C)(C)CC(Oc2ccc(C(=O)Nc3ccc(NC(=O)Nc4cc(C(C)(C)C)on4)cc3)nc2)CC1(C)C.CS(=O)(=O)O
solubility [32]: > 1000 µg/mL

SMILES: CN1C(C)(C)CC(Oc2ccc(C(=O)Nc3ccc(NC(=O)Nc4cc(C(C)(C)C)on4)cc3)nc2)CC1(C)C
Activity (Rattus norvegicus [5]): Toxic | Activity (Rattus norvegicus [33]): Toxic | inhibition in vivo at 100 mg/kg [34]: 92% | inhibition in vivo at 30 mg/kg [6]: 82% | Activity (Rattus norvegicus [11]): Non-toxic | AUC [12]: 65.8 µM·h | Activity (Rattus norvegicus [13]): Toxic | pIC50 (Cytochrome P450 3A4 [35]): < 4.40 | pIC50 (Cytochrome P450 2C19): < 4.40 | pIC50 (Cytochrome P450 2D6 [17]): < 4.40 | pIC50 (Cytochrome P450 1A2 [18]): < 4.40 | pIC50 (Cytochrome P450 2C9): < 4.40 | pKd [22]: 8.96 | pIC50 [23]: 8.10 | bioavailability [26]: 31.5% | AUC [27]: 9.1 µM·h | clearance [28]: 10.9 mL/min/kg

bioavailability [26]: 22% | AUC [27]: 5 µM·h | clearance [28]: 15 mL/min/kg
SMILES: CC(C)(C)c1cc(NC(=O)Nc2ccc(NC(=O)c3ccc(OC4CCN(C(C)(C)C)CC4)cn3)cc2)no1

SMILES: CCN1C(C)(C)CC(Oc2ccc(C(=O)Nc3ccc(NC(=O)Nc4cc(C(C)(C)C)on4)cc3)nc2)CC1(C)C.CS(=O)(=O)O
solubility [32]: > 1000 µg/mL
